Tested on: HUVEC cells (Human Umbilical Vein Endothelial Cells)
Assay: Proliferation assay with LL37-loaded nanoparticles (CCK-8)
Format: cell-based
Details: 0.5 and 0.1 μg/ml LL37, after 48 hours, FIG. 6

Substance: free LL37: Cathelicidin antimicrobial peptide LL37, SEQ ID NO 1 (LLGDFFRKSKEKIGKEFKRIVQRIKDFLRNLVPRTES), non-encapsulated
- cell proliferation compared with control groups: greater cell proliferation

Reference: patent US10206886B2, “Lipid nanoparticles for wound healing” (Praxis Biopharma Research Institute, priority 2013, dated 2019)
